We go through 17 compounds from patent US9657043B2, “Amine compound and use thereof for medical purposes” (MITSUBISHI TANABE PHARMA CORPORATION, priority 2012, dated 2017).

The test system of the test is peripheral blood lymphocyte count. Description: Evaluation of peripheral blood lymphocyte count-decreasing effect in mice. The following applies: Mus musculus, ip, intraperitoneal administration, 24 hr after administration, in 20% cyclodextrin, read-out: ED50 (dose necessary for 50% reduction of the lymphocyte count of vehicle group as 100%). The class given is in vivo, male BALB/c mice. The protocol: The compound of the present invention was dissolved or suspended in 20% cyclodextrin (manufactured by NIHON SHOKUHIN KAKO CO., LTD), and intraperitoneally administered to a 7- to 10-week-old male BALB/c mice (CHARLES RIVER LABORATORIES, JAPAN INC.) at a dose of 0.001-10 mg/kg body weight. After 24 hr from the administration of the compound of the present invention, peripheral blood (about 0.3 ml) was drawn from the postcava of the mouse with a heparin sodium (manufactured by NovoNordisk)-treated tuberculin syringe (manufactured by TERUMO CORPORATION) under ether anesthesia. The blood (0.1 ml) was hemolysed with an automatic hemolysis processing apparatus (TQ-Prep, manufactured by BECKMAN COULTER, Inc.), and the number of lymphocytes was counted with a Flow Cytometer (CYTOMICS FC 500, manufactured by BECKMAN COULTER, Inc.) by a gating method using scattering at the front and the side of the laser beam as indices and using Flow-Count™ Fluorospheres (manufactured by BECKMAN COULTER, Inc.), whose standard particle count is known, as internal standard. A dose necessary for 50% reduction of the lymphocyte count of vehicle group as 100% was calculated and used as ED50 value (mg/kg body weight).
Take `CCCCCOc1ccc2c(=O)c3ccc(CCC(N)(CO)CO)cc3oc2c1` [Example 41, 3-[3-amino-4-hydroxy-3-(hydroxymethyl)butyl]-6-pentyloxy-9H-xanthen-9-one]: the ED50 – broadly, the midpoint of the dose-response relation – was determined as 0.37 mg/kg. In the case of `COc1ccc(Oc2ccc3c(=O)c4cc(CCC(N)(CO)CO)ccc4oc3c2)cc1` [Example 108, 2-[3-amino-4-hydroxy-3-(hydroxymethyl)butyl]-6-(4-methoxyphenoxy)-9H-xanthen-9-one] it was 0.05 mg/kg; in that of `NC(CO)(CO)CCc1ccc2sc3ccc(Oc4cccc(C(F)(F)F)c4)cc3c(=O)c2c1` [Example 44, 2-[3-amino-4-hydroxy-3-(hydroxymethyl)butyl]-7-[3-(trifluoromethyl)phenoxy]-9H-thioxanthen-9-one], 0.01 mg/kg.

For the compound `NC(CO)(CO)CCc1ccc2sc3cc(Oc4ccc(Cl)cc4)ccc3c(=O)c2c1` [Example 55, 2-[3-amino-4-hydroxy-3-(hydroxymethyl)butyl]-6-(4-chlorophenoxy)-9H-thioxanthen-9-one], the ED50 stood at 0.03 mg/kg. In the case of `NC(CO)(CO)CCc1ccc2oc3cc(Oc4ccc(F)cc4)ccc3c(=O)c2c1` [Example 105, 2-[3-amino-4-hydroxy-3-(hydroxymethyl)butyl]-6-(4-fluorophenoxy)-9H-xanthen-9-one] it was 0.22 mg/kg. In the case of `CCCCCCOc1ccc2oc3ccc(CCC(N)(CO)CO)cc3c(=O)c2c1` [Example 23, 2-[3-amino-4-hydroxy-3-(hydroxymethyl)butyl]-7-hexyloxy-9H-xanthen-9-one] it was 0.03 mg/kg; in that of `NC(CO)(CO)CCc1ccc2c(=O)c3cc(Oc4ccc(F)c(Cl)c4)ccc3oc2c1` [Example 138, 6-[3-amino-4-hydroxy-3-(hydroxymethyl)butyl]-2-(3-chloro-4-fluorophenoxy)-9H-xanthen-9-one], 0.06 mg/kg. For the compound `NC(CO)(CO)CCc1ccc2oc3cc(Oc4ccc(F)c(Cl)c4)ccc3c(=O)c2c1` [Example 116, 2-[3-amino-4-hydroxy-3-(hydroxymethyl)butyl]-6-(3-chloro-4-fluorophenoxy)-9H-xanthen-9-one], the ED50 amounted to 0.09 mg/kg. As for `NC(CO)(CO)CCc1ccc2sc3cc(Oc4cccc(C(F)(F)F)c4)ccc3c(=O)c2c1` [Example 54, 2-[3-amino-4-hydroxy-3-(hydroxymethyl)butyl]-6-[3-(trifluoromethyl)phenoxy]-9H-thioxanthen-9-one], the ED50 was 0.02 mg/kg. To `COc1ccc(Oc2ccc3c(=O)c4ccc(CCC(N)(CO)CO)cc4oc3c2)cc1` [Example 143, 3-[3-amino-4-hydroxy-3-(hydroxymethyl)butyl]-6-(4-methoxyphenoxy)-9H-xanthen-9-one] belongs 0.14 mg/kg. In the case of `CCCCCOc1ccc2oc3ccc(CCC(N)(CO)CO)cc3c(=O)c2c1` [Example 22, 2-[3-amino-4-hydroxy-3-(hydroxymethyl)butyl]-7-pentyloxy-9H-xanthen-9-one] it was 0.07 mg/kg. To `Cl.NC(CO)(CO)CCc1ccc2c(=O)c3cc(Oc4cccc(C(F)(F)F)c4)ccc3oc2c1` [Example 83, 6-[3-amino-4-hydroxy-3-(hydroxymethyl)butyl]-2-[3-(trifluoromethyl)phenoxy]-9H-xanthen-9-one] belongs 0.05 mg/kg; to `NC(CO)(CO)CCc1ccc2sc3ccc(Oc4cccc(Cl)c4)cc3c(=O)c2c1` [Example 76, 2-[3-amino-4-hydroxy-3-(hydroxymethyl)butyl]-7-(3-chlorophenoxy)-9H-thioxanthen-9-one], 0.04 mg/kg; to `CCCCCCOc1ccc2c(=O)c3ccc(CCC(N)(CO)CO)cc3sc2c1` [Example 20, 3-[3-amino-4-hydroxy-3-(hydroxymethyl)butyl]-6-hexyloxy-9H-thioxanthen-9-one], 0.05 mg/kg. As to `Cl.NC(CO)(CO)CCc1ccc2oc3cc(-c4cccc(OC(F)(F)F)c4)ccc3c(=O)c2c1` [Example 164, 2-[3-amino-4-hydroxy-3-(hydroxymethyl)butyl]-6-[3-(trifluoromethoxy)phenyl]-9H-xanthen-9-one], the 50% effective dose (ED50) was 0.04 mg/kg.

Turning to `CCCC/C=C/c1ccc2oc3cc(CCC(N)(CO)CO)ccc3c(=O)c2c1` [Example 180, 6-[3-amino-4-hydroxy-3-(hydroxymethyl)butyl]-2-[(1E)-hex-1-en-1-yl]-9H-xanthen-9-one], the ED50 amounted to 0.03 mg/kg.

In the case of `NC(CO)(CO)CCc1ccc2oc3cc(-c4cccc(C(F)(F)F)c4)ccc3c(=O)c2c1` [Example 172, 2-[3-amino-4-hydroxy-3-(hydroxymethyl)butyl]-6-[3-(trifluoromethyl)phenyl]-9H-xanthen-9-one], the ED50 stood at 0.09 mg/kg.
